# Measurements from publication PMC10647589, “Heterogeneous Cellular Response of Primary and Metastatic Human Gastric Adenocarcinoma Cell Lines to Magnoflorine and Its Additive Interaction with Docetaxel” (International Journal of Molecular Sciences, 2023).
# Tests used:
# Assay type in all cases: cell-based
# NCI-N87 human GC cells = assay: Cell cycle analysis (PI, flow cytometry); settings: 72 h
# Protocol: (§1) Human GC cells ACC-201, AGS, MKN-74 and NCI-N87 were seeded in 6-well plates and allowed to adhere overnight. On the following day, the growth medium was removed, and the cells were treated with indicated concentrations of MGN (10–40 µg/mL) for 72 h. After that, the cells were washed with phosphate-buffered saline (PBS) and fixed in 70% ethanol at 4 °C overnight. Then, the cells were washed with PBS and stained with propidium iodide, utilizing PI/RNase Staining Buffer (BD Biosciences, Heidelberg, Germany) for 15 min in the dark. Cell distribution in different stages of the cell cycle was performed through the use of the FACS CaliburTM flow cytometer (BD Biosciences, Mountain View, CA, USA).
# MKN-74 human GC cells [1] = assay: Cell cycle analysis (PI, flow cytometry); settings: 72 h
# Protocol: as §1
# ACC-201 human GC cells [2] = assay: Cell cycle analysis (PI, flow cytometry); settings: 72 h
# Protocol: as §1
# AGS human GC cells [3] = assay: Cell cycle analysis (PI, flow cytometry); settings: 72 h
# Protocol: as §1
# MKN-74 human GC cells [4] = assay: Active caspase-3 analysis (flow cytometry); settings: MKN-74, MGN 10 µg/mL, 72 h
# Protocol: (§2) Human GC cells ACC-201, AGS, MKN-74 and NCI-N87 were seeded in 6-well plates and allowed to adhere overnight. On the following day, the growth medium was replaced with fresh medium, and the cells were exposed to indicated concentrations of MGN (10–40 µg/mL) for 72 h. Apoptotic cells were analyzed using PE Active Caspase-3 Apoptosis Kit (BD Biosciences) according to the manufacturer’s instructions. Briefly, the cells were collected, washed with cold PBS and then incubated in Cytofix/Cytoperm Solution for 20 min on ice. After two washes, the cells were incubated with Active Caspase-3 Antibody in Perm/Wash Buffer for 30 min at room temperature. Finally, the cells were resuspended in Perm/Wash Buffer and quantitative analysis of 10,000 cells per sample was performed through the use of FACS CaliburTM flow cytometer (BD Biosciences, Mountain View, CA, USA).
# ACC-201 human GC cells [5] = assay: Active caspase-3 analysis (flow cytometry); settings: ACC-201, MGN 10 µg/mL, 72 h
# Protocol: as §2
# AGS human GC cells [6] = assay: Active caspase-3 analysis (flow cytometry); settings: 72 h
# Protocol: as §2
smiles,measurement,setting,value
"COc1ccc2c(c1O)-c1c(O)c(OC)cc3c1[C@H](C2)[N+](C)(C)CC3 [MGN, magnoflorine]",cells in G1 phase,"NCI-N87 human GC cells; NCI-N87, MGN 10 µg/mL",69.39% ± 3.658
same,cells in G2 phase,"NCI-N87 human GC cells; NCI-N87, MGN 10 µg/mL",16.52% ± 2.770
same,cells in S phase,"NCI-N87 human GC cells; NCI-N87, MGN 10 µg/mL",11.81% ± 3.808
same,cells in subG1 phase,"NCI-N87 human GC cells; NCI-N87, MGN 10 µg/mL",2.41% ± 2.189
same,cells in G1 phase,"NCI-N87 human GC cells; NCI-N87, MGN 20 µg/mL",70.17% ± 2.905
same,cells in G2 phase,"NCI-N87 human GC cells; NCI-N87, MGN 20 µg/mL",15.56% ± 2.419
same,cells in S phase,"NCI-N87 human GC cells; NCI-N87, MGN 20 µg/mL",10.44% ± 6.685
same,cells in subG1 phase,"NCI-N87 human GC cells; NCI-N87, MGN 20 µg/mL",3.93% ± 2.591
same,cells in G1 phase,"NCI-N87 human GC cells; NCI-N87, MGN 30 µg/mL",67.45% ± 3.535
same,cells in G2 phase,"NCI-N87 human GC cells; NCI-N87, MGN 30 µg/mL",16.21% ± 1.874
same,cells in S phase,"NCI-N87 human GC cells; NCI-N87, MGN 30 µg/mL",10.12% ± 7.739
same,cells in subG1 phase,"NCI-N87 human GC cells; NCI-N87, MGN 30 µg/mL",6.33% ± 2.772
same,cells in G1 phase,"NCI-N87 human GC cells; NCI-N87, MGN 40 µg/mL",64.37% ± 3.651
same,cells in G2 phase,"NCI-N87 human GC cells; NCI-N87, MGN 40 µg/mL",17.06% ± 2.426
same,cells in S phase,"NCI-N87 human GC cells; NCI-N87, MGN 40 µg/mL",9.24% ± 5.603
same,cells in subG1 phase,"NCI-N87 human GC cells; NCI-N87, MGN 40 µg/mL",9.47% ± 1.163
same,effect on cell cycle progression,"NCI-N87 human GC cells; NCI-N87, MGN 10–40 µg/mL",Minor changes in cell cycle progression
same,cells in G1 phase,"MKN-74 human GC cells [1]; MKN-74, MGN 10 µg/mL",69.07% ± 1.886
same,cells in G2 phase,"MKN-74 human GC cells [1]; MKN-74, MGN 10 µg/mL",16.23% ± 1.928
same,cells in S phase,"MKN-74 human GC cells [1]; MKN-74, MGN 10 µg/mL",13.36% ± 0.622
same,cells in subG1 phase,"MKN-74 human GC cells [1]; MKN-74, MGN 10 µg/mL",1.60% ± 2.688
same,cells in G1 phase,"MKN-74 human GC cells [1]; MKN-74, MGN 20 µg/mL",73.81% ± 4.227
same,cells in G2 phase,"MKN-74 human GC cells [1]; MKN-74, MGN 20 µg/mL",14.14% ± 2.076
same,cells in S phase,"MKN-74 human GC cells [1]; MKN-74, MGN 20 µg/mL",9.97% ± 1.867
same,cells in subG1 phase,"MKN-74 human GC cells [1]; MKN-74, MGN 20 µg/mL",2.28% ± 2.818
same,cells in G1 phase,"MKN-74 human GC cells [1]; MKN-74, MGN 30 µg/mL",65.90% ± 3.533
same,cells in G2 phase,"MKN-74 human GC cells [1]; MKN-74, MGN 30 µg/mL",22.92% ± 2.455
same,cells in S phase,"MKN-74 human GC cells [1]; MKN-74, MGN 30 µg/mL",7.72% ± 1.822
same,cells in subG1 phase,"MKN-74 human GC cells [1]; MKN-74, MGN 30 µg/mL",3.59% ± 2.787
same,cells in G1 phase,"MKN-74 human GC cells [1]; MKN-74, MGN 40 µg/mL",50.20% ± 5.303
same,cells in G2 phase,"MKN-74 human GC cells [1]; MKN-74, MGN 40 µg/mL",35.94% ± 6.691
same,cells in S phase,"MKN-74 human GC cells [1]; MKN-74, MGN 40 µg/mL",8.25% ± 2.280
same,cells in subG1 phase,"MKN-74 human GC cells [1]; MKN-74, MGN 40 µg/mL",5.60% ± 1.002
same,effect on cell cycle progression,"MKN-74 human GC cells [1]; MKN-74, MGN 10 and 20 µg/mL vs. 40 µg/mL",induced G1/S or G2/M phase cell cycle arrest
same,cells in G1 phase,"ACC-201 human GC cells [2]; ACC-201, MGN 10 µg/mL",62.76% ± 2.434
same,cells in G2 phase,"ACC-201 human GC cells [2]; ACC-201, MGN 10 µg/mL",9.96% ± 3.707
same,cells in S phase,"ACC-201 human GC cells [2]; ACC-201, MGN 10 µg/mL",8.74% ± 3.423
same,cells in subG1 phase,"ACC-201 human GC cells [2]; ACC-201, MGN 10 µg/mL",18.52% ± 1.414
same,cells in G1 phase,"ACC-201 human GC cells [2]; ACC-201, MGN 20 µg/mL",57.23% ± 2.112
same,cells in G2 phase,"ACC-201 human GC cells [2]; ACC-201, MGN 20 µg/mL",8.34% ± 4.237
same,cells in S phase,"ACC-201 human GC cells [2]; ACC-201, MGN 20 µg/mL",8.33% ± 1.647
same,cells in subG1 phase,"ACC-201 human GC cells [2]; ACC-201, MGN 20 µg/mL",26.06% ± 1.399
same,cells in G1 phase,"ACC-201 human GC cells [2]; ACC-201, MGN 30 µg/mL",49.55% ± 1.820
same,cells in G2 phase,"ACC-201 human GC cells [2]; ACC-201, MGN 30 µg/mL",5.87% ± 5.399
same,cells in S phase,"ACC-201 human GC cells [2]; ACC-201, MGN 30 µg/mL",6.16% ± 1.340
same,cells in subG1 phase,"ACC-201 human GC cells [2]; ACC-201, MGN 30 µg/mL",38.50% ± 1.886
same,cells in G1 phase,"ACC-201 human GC cells [2]; ACC-201, MGN 40 µg/mL",39.27% ± 3.408
same,cells in G2 phase,"ACC-201 human GC cells [2]; ACC-201, MGN 40 µg/mL",3.74% ± 1.615
same,cells in S phase,"ACC-201 human GC cells [2]; ACC-201, MGN 40 µg/mL",5.61% ± 1.874
same,cells in subG1 phase,"ACC-201 human GC cells [2]; ACC-201, MGN 40 µg/mL",51.43% ± 2.072
same,cells in G1 phase,AGS human GC cells [3]; MGN 10 µg/mL,58.09% ± 8.195
same,cells in G2 phase,AGS human GC cells [3]; MGN 10 µg/mL,23.35% ± 12.110
same,cells in S phase,AGS human GC cells [3]; MGN 10 µg/mL,17.62% ± 3.599
same,cells in subG1 phase,AGS human GC cells [3]; MGN 10 µg/mL,1.19% ± 2.437
same,cells in G1 phase,AGS human GC cells [3]; MGN 20 µg/mL,53.06% ± 12.980
same,cells in G2 phase,AGS human GC cells [3]; MGN 20 µg/mL,24.06% ± 16.000
same,cells in S phase,AGS human GC cells [3]; MGN 20 µg/mL,21.07% ± 2.593
same,cells in subG1 phase,AGS human GC cells [3]; MGN 20 µg/mL,2.17% ± 2.519
same,cells in G1 phase,AGS human GC cells [3]; MGN 30 µg/mL,43.08% ± 14.330
same,cells in G2 phase,AGS human GC cells [3]; MGN 30 µg/mL,31.77% ± 17.630
same,cells in S phase,AGS human GC cells [3]; MGN 30 µg/mL,21.55% ± 2.265
same,cells in subG1 phase,AGS human GC cells [3]; MGN 30 µg/mL,2.17% ± 3.000
same,cells in G1 phase,AGS human GC cells [3]; MGN 40 µg/mL,38.15% ± 13.350
same,cells in G2 phase,AGS human GC cells [3]; MGN 40 µg/mL,39.34% ± 15.720
same,cells in S phase,AGS human GC cells [3]; MGN 40 µg/mL,19.89% ± 2.653
same,cells in subG1 phase,AGS human GC cells [3]; MGN 40 µg/mL,2.98% ± 2.448
same,effect on cell cycle progression,AGS human GC cells [3]; MGN 10–40 µg/mL,induced the G2/M phase arrest
same,% cells with active caspase-3,MKN-74 human GC cells [4],2.633 ± 0.069%
same,% cells with active caspase-3,ACC-201 human GC cells [5],6.770 ± 0.866%
same,% cells with active caspase-3,AGS human GC cells [6]; MGN 10 µg/mL,2.390 ± 0.411%
same,% cells with active caspase-3,AGS human GC cells [6]; MGN 20 µg/mL,4.172 ± 0.422%
